# Assay results published in ChEMBL document CHEMBL3877329, “Antiprotozoal glutathione derivatives with flagellar membrane binding activity against T. brucei rhodesiense” (Bioorg Med Chem, 2017).
# Activity calls are given as the source filed them. No cut-off for these calls is given here.
# Assays:
# [1] = system: Leishmania donovani; assay: Antileishmanial activity against Leishmania donovani MHOM/ET/67/HU3 amastigotes infected in CD1 mouse peritoneal macrophages after 5 days; assay type: functional; conditions: for EC50: MHOM/ET/67/HU3, 120 h, read-out: ED50 (the source's name)
# [2] = system: Trypanosoma brucei rhodesiense; assay: Antitrypanosomal activity against Trypanosoma brucei rhodesiense STIB900 bloodstream trypomastigote forms measured on day 3 post treatment by alamar blue assay; assay type: functional; conditions: STIB900, 72 h, read-out: ED50 (the source's name)
# [3] = Cytotoxicity against human KB cells after 3 days by fluorometric assay; assay type: toxicity, cell-based; conditions: read-out: ED50
# [4] = system: Trypanosoma cruzi; assay: Antitrypanosomal activity against Trypanosoma cruzi MHOM/BR/OO/Y trypomastigotes infected in CD1 mouse peritoneal macrophages after 3 days; assay type: functional; conditions: 72 h, read-out: ED50 (the source's name)
# [5] = Selectivity index, ratio of ED50 for human KB cells to ED50 for Trypanosoma brucei rhodesiense STIB900 bloodstream trypomastigote forms; assay type: toxicity, cell-based; conditions: read-out: Ratio ED50
# [6] = species on record: Mus musculus; assay: Cytotoxicity against CD1 mouse peritoneal macrophages assessed as induction of cell membrane lysis at 30 uM by optical microscopic method; assay type: toxicity; conditions: peritoneal macrophage
# [7] = Drug release from Trypanosoma brucei brucei S247 bloodstream forms cell membrane treated with N-benzyloxy carbonyl-S-(4-bromobenzyl)glutathione dimethyl ester at 50 uM after 120 mins in presence of 1 M NaCl by HPLC-UV method; assay type: ADME; conditions: 2 h
# [8] = Drug release from Trypanosoma brucei brucei S247 bloodstream forms cell membrane treated with N-benzyloxy carbonyl-S-(4-bromobenzyl)glutathione dimethyl ester at 50 uM after 120 mins in presence of 6 M urea by HPLC-UV method; assay type: ADME, tissue-based; conditions: blood, 2 h
# [9] = Drug uptake in Trypanosoma brucei brucei S247 bloodstream forms at 50 uM after 5 mins by HPLC-UV method; assay type: ADME
# [10] = system: Trypanosoma brucei brucei; assay: Antitrypanosomal activity against Trypanosoma brucei brucei S247 bloodstream forms; assay type: functional; conditions: read-out: ED50 (the source's name)
# [11] = system: Trypanosoma brucei brucei; assay: Antitrypanosomal activity against Trypanosoma brucei brucei S247 bloodstream forms assessed as immobility of parasite at 50 uM up to 1 min by optical microscopic method; assay type: functional
# [12] = Drug release from Trypanosoma brucei brucei S247 bloodstream forms cell membrane at 50 uM after 120 mins in presence of 6 M urea by HPLC-UV method; assay type: ADME, tissue-based; conditions: blood, 2 h
# [13] = system: Trypanosoma brucei brucei; assay: Antitrypanosomal activity against Trypanosoma brucei brucei S247 bloodstream forms assessed as swirling motion of cell particles at 50 uM after 1 hr by optical microscopic method; assay type: functional
# [14] = system: Trypanosoma brucei brucei; assay: Antitrypanosomal activity against Trypanosoma brucei brucei S247 bloodstream forms assessed as swelling of parasite head at 50 uM after 5 mins by optical microscopic method; assay type: functional
# [15] = Drug release fromTrypanosoma brucei brucei S247 bloodstream forms cell membrane at 50 uM after 120 mins in presence of 1 M NaCl by HPLC-UV method; assay type: ADME; conditions: trypanosoma brucei brucei, 2 h
# [16] = system: Trypanosoma brucei brucei; assay: Antitrypanosomal activity against Trypanosoma brucei brucei S247 bloodstream forms assessed as circular appearance at 50 uM after 30 to 40 mins by optical microscopic method; assay type: functional
Molecule,EC50 [1],EC50 [2],EC50 [4],CC50 at 72 h [3],selectivity ratio [5],also measured
CCCCOC(=O)CNC(=O)[C@H](CSc1ccc([N+](=O)[O-])cc1[N+](=O)[O-])NC(=O)CC[C@H](NC(=O)CC(C)C)C(=O)OCCCC,> 30 µM,1.16 µM,> 30 µM,59.6 µM,51.4,–
CCCCOC(=O)CNC(=O)[C@H](CSc1ccc([N+](=O)[O-])cc1[N+](=O)[O-])NC(=O)CC[C@H](Nc1nc(N)nc(Cl)n1)C(=O)OCCCC,–,18.8 µM,–,> 300 µM,> 15.9,–
COC(=O)CNC(=O)[C@H](CSCc1ccc(Br)cc1)NC(=O)CC[C@H](NC(=O)OCc1ccccc1)C(=O)O,–,–,–,–,–,Drug uptake [7]: 24%; Drug uptake [8]: 8%
Sodium stibogluconate,–,–,–,–,–,ED50 [1]: 33 µg/mL
CCCCOC(=O)CNC(=O)[C@H](CSc1ccc([N+](=O)[O-])cc1[N+](=O)[O-])NC(=O)CC[C@H](NC(=O)C(C)C)C(=O)OCCCC,–,0.73 µM,30.8 µM,> 300 µM,> 411,–
CCCCOC(=O)CNC(=O)[C@H](CSc1ccc([N+](=O)[O-])cc1[N+](=O)[O-])NC(=O)CC[C@H](NC(=O)OC)C(=O)OCCCC,> 30 µM,2.15 µM,30.4 µM,> 300 µM,> 139,–
O=C(Cn1ccnc1[N+](=O)[O-])NCc1ccccc1 [BENZNIDAZOLE],–,–,4.4 µM,–,–,–
CCCCOC(=O)CNC(=O)[C@H](CSc1ccc([N+](=O)[O-])cc1[N+](=O)[O-])NC(=O)CC[C@H](NC(=O)CC(C)(C)C)C(=O)OCCCC,–,4.38 µM,12 µM,250 µM,57.1,–
N[C@@H](CCC(=O)N[C@@H](CSc1ccc([N+](=O)[O-])cc1[N+](=O)[O-])C(=O)NCC(=O)O)C(=O)O,> 30 µM,> 30 µM,> 30 µM,–,–,–
O=C(O)CNC(=O)[C@H](CSCc1ccc(Br)cc1)NC(=O)CC[C@H](NC(=O)OCc1ccccc1)C(=O)O,–,–,–,–,–,Drug uptake [8]: 12%
CCCCOC(=O)CNC(=O)[C@H](CSc1ccc([N+](=O)[O-])cc1[N+](=O)[O-])NC(=O)CC[C@H](NC(=O)OC(C)(C)C)C(=O)OCCCC,9.9 µM,0.22 µM,16.5 µM,70.4 µM,320,–
CCCCOC(=O)CNC(=O)[C@H](CSc1ccc([N+](=O)[O-])cc1[N+](=O)[O-])NC(=O)CC[C@H](NC(=O)CCc1c[nH]c2ccccc12)C(=O)OCCCC,–,0.3 µM,35 µM,26 µM,87,–
COC(=O)CNC(=O)[C@H](CSCc1ccc(Br)cc1)NC(=O)CC[C@H](NC(=O)OCc1ccccc1)C(=O)OC,–,–,–,–,–,Drug uptake [9]: Active; EC50 [10]: 30 µM; Activity [11]: Active; Drug uptake [12]: 80%; Activity [13]: Active; Activity [14]: Active; Drug uptake [15]: 76%; Activity [16]: Active

# Further molecules by falling EC50 [2], results first:
EC50 [1],EC50 [2],EC50 [4],Molecule,CC50 at 72 h [3],selectivity ratio [5],also measured
–,32.6 µM,> 30 µM,CCCCCCCCCCCCCC(=O)N[C@@H](CCC(=O)N[C@@H](CSc1ccc([N+](=O)[O-])cc1[N+](=O)[O-])C(=O)NCC(=O)OCCCC)C(=O)OCCCC,> 300 µM,> 9.2,–
–,6.52 µM,37.8 µM,CCCCOC(=O)CNC(=O)[C@H](CSc1ccc([N+](=O)[O-])cc1[N+](=O)[O-])NC(=O)CC[C@H](NC(C)=O)C(=O)OCCCC,> 300 µM,> 46,–
> 30 µM,2.02 µM,> 30 µM,CCCCOC(=O)CNC(=O)[C@H](CSc1ccc([N+](=O)[O-])cc1[N+](=O)[O-])NC(=O)CC[C@H](NC(=O)CCc1ccccc1)C(=O)OCCCC,> 300 µM,> 148,–
19.9 µM,1.88 µM,–,CCCCOC(=O)CNC(=O)[C@H](CSc1ccc([N+](=O)[O-])cc1[N+](=O)[O-])NC(=O)CC[C@H](N)C(=O)OCCCC,107 µM,57.1,Activity [6]: Toxic
–,1.02 µM,–,CCCCOC(=O)CNC(=O)[C@H](CSc1ccc([N+](=O)[O-])cc1[N+](=O)[O-])NC(=O)CC[C@H](NC(=O)CCC(C)C)C(=O)OCCCC,84 µM,82.3,–
–,0.72 µM,–,CCCCOC(=O)CNC(=O)[C@H](CSc1ccc([N+](=O)[O-])cc1[N+](=O)[O-])NC(=O)CC[C@H](Nc1ccc([N+](=O)[O-])cc1[N+](=O)[O-])C(=O)OCCCC,> 300 µM,> 417,–
–,0.6 µM,> 30 µM,CCCCOC(=O)CNC(=O)[C@H](CSc1ccc([N+](=O)[O-])cc1[N+](=O)[O-])NC(=O)CC[C@H](NC(=O)COc1ccccc1)C(=O)OCCCC,> 300 µM,> 500,–
–,0.6 µM,8.4 µM,CCCCOC(=O)CNC(=O)[C@H](CSc1ccc([N+](=O)[O-])cc1[N+](=O)[O-])NC(=O)CC[C@H](NC(=O)C(C)(C)C)C(=O)OCCCC,83.4 µM,139,–
–,0.55 µM,22.9 µM,CCCCOC(=O)CNC(=O)[C@H](CSc1ccc([N+](=O)[O-])cc1[N+](=O)[O-])NC(=O)CC[C@H](NC(=O)c1ccccc1)C(=O)OCCCC,> 300 µM,> 545,–
10.1 µM,0.5 µM,4.5 µM,CCCCOC(=O)CNC(=O)[C@H](CSc1ccc([N+](=O)[O-])cc1[N+](=O)[O-])NC(=O)CC[C@H](NC(=O)OC12CC3CC(CC(C3)C1)C2)C(=O)OCCCC,> 300 µM,> 600,–
> 30 µM,0.42 µM,–,CCCCOC(=O)CNC(=O)[C@H](CSc1ccc([N+](=O)[O-])cc1[N+](=O)[O-])NC(=O)CC[C@H](NC(=O)OCc1ccccc1)C(=O)OCCCC,95.2 µM,227,–
–,0.28 µM,> 30 µM,CCCCOC(=O)CNC(=O)[C@H](CSc1ccc([N+](=O)[O-])cc1[N+](=O)[O-])NC(=O)CC[C@H](NC(=O)/C=C/c1ccccc1)C(=O)OCCCC,34.4 µM,123,–
–,0.00033 µM,–,N=C(N)c1ccc(OCCCCCOc2ccc(C(=N)N)cc2)cc1,–,–,–
